Assays:
Test in all cases: WST-1 cell viability assay
Calu-1 = details: Calu-1, NRP1-expressing; 0, 1, 2, and 4 μM, 48 hours
Calu-3 = details: Calu-3, NRP1-expressing; 0, 1, 2, and 4 μM, 48 hours
HCC44 = details: HCC44, NRP1-expressing; 0, 1, 2, and 4 μM, 48 hours
H441 = details: H441, NRP1-expressing; 0, 1, 2, and 4 μM, 48 hours
A549 = details: A549, NRP1-expressing; 0, 1, 2, and 4 μM, 48 hours
H1299 = details: H1299, NRP1-expressing; 0, 1, 2, and 4 μM, 48 hours
SK-LU-1 = details: SK-LU-1, NRP1-expressing; 0, 1, 2, and 4 μM, 48 hours
H460 = details: H460, expressing no NRP1; 0, 1, 2, and 4 μM, 48 hours

Row | Substance | cell growth inhibitory activity (WST-1) (Calu-1) | cell growth inhibitory activity (WST-1) (Calu-3) | cell growth inhibitory activity (WST-1) (HCC44) | cell growth inhibitory activity (WST-1) (H441) | cell growth inhibitory activity (WST-1) (A549) | cell growth inhibitory activity (WST-1) (H1299) | cell growth inhibitory activity (WST-1) (SK-LU-1) | cell growth inhibitory activity (WST-1) (H460)
1 | Panitumumab [Pnm, reference compound] | showed the same inhibitory activity against cell growth | showed the same inhibitory activity against cell growth | showed the same inhibitory activity against cell growth | only Pnm-TPP11 showed cell growth inhibitory activity, unlike Pnm | showed the same inhibitory activity against cell growth | only Pnm-TPP11 showed cell growth inhibitory activity, unlike Pnm | only Pnm-TPP11 showed cell growth inhibitory activity, unlike Pnm | 
2 | Pnm-TPP11: TPP11 peptide fused to C-terminus of Pnm heavy chain by (G4S)3 linker; heavy chain SEQ ID NO: 10, light chain SEQ ID NO: 14 | showed the same inhibitory activity against cell growth | showed the same inhibitory activity against cell growth | showed the same inhibitory activity against cell growth | showed cell growth inhibitory activity | showed the same inhibitory activity against cell growth | showed cell growth inhibitory activity | showed cell growth inhibitory activity | showed no effect

Source: patent US11548915B2, “Composition for overcoming resistance to EGFR-targeting agent” (Pinetree Therapeutics, Inc., priority 2016, dated 2023)
